# In patent US10512656B2, “Compositions and methods for the treatment of lysosomal storage disorders and disorders characterized by lysosomal dysfunction” (Baylor College of Medicine, priority 2016, dated 2019):
# Tests used:
# [1] = system: HeLa cells; assay: Autophagic flux in HeLa cells (LAMP1, p62, LC3 markers); assay type: cell-based, human; settings: time course
# Protocol: FIG. 14. Akt phosphorylates TFEB at Ser467. […] Dashed boxes (upper row) show the location of the higher power inserts (lower row). (b) Subcellular fractionation of HeLa/TFEB cells incubated with the same kinase inhibitors. (c) Multi-alignment of TFEB amino-acid sequences from the following species: Ac, Anolis carolensis; Bt, Bos taurus; Dr, Danio rerio; Fc, Felix catus; Gg, gallus gallus; Hs, Homo sapiens; La, Loxodonta africana; Mm, Mus musculus; Rn, Rattus Norvegicus; Sh, Sarcophilus harrisii; Sp, Strongylocentrotus purpuratus; XI, Xenopus laevis. A consensus logo of Akt phosphorylation sites (generated at weblogo.berkeley.edu/logo.cgi) is aligned with TFEB sequences. Position 467 refers to the human protein sequence. (d) Subcellular localization of TFEB and TFEB(S467A). (e) Expression analysis of lysosomal and autophagy genes in HeLa cells transfected with TFEB or TFEB(S467A). […]
# Brain tissue and cultured cells were collected and lysed in RIPA buffer (50 mM Tris-HCl, ph 7.4, 1% NP40, 0.5% Na-deoxycholate, 0.1% SDS, 150 mM NaCl, 2 mM EDTA and 50 mM NaF) including a cocktail of protease (Roche) and phosphatase (SIGMA) inhibitors. Protein concentrations were measured with the bicinchoninic acid protein assay kit (Pierce, Rockford, Ill.), using bovine serum albumin as standard. […] Western blot images were acquired by LAS 4000 (GE Healthcare) and quantified using ImageJ. […]
# [2] = system: Cln3^Δex7-8 mice; assay: TEM counting of fingerprint profiles; assay type: in vivo, mouse
# Protocol: Mice were anaesthetized and perfused intracardially with saline solution followed by 2% formaldehyde+2.5% glutaraldehyde in 0.1M sodium cacodylate buffer (pH 7.4). Brains were removed and small pieces of cerebellum and cortex were collected, and further postfixed in 2% formaldehyde|o2.5% glutaraldehyde, 0.1M sodium cacodylate buffer (pH 7.4) for 24 h. One-hundred micrometer coronal sections were cut with a vibratome and fixed in 1% OsO4 in 0.1M cacodylate for 1 h, stained with uranyl acetate dehydrated and embedded in Eponate 812. Ultrathin sections at 60 nm were obtained on an RMC MT6000 ultramicrotome and examined with a Hitachi H7500 transmission electron microscope. Images were captured using a Gatan US1000 high-resolution digital camera and Digital Micrograph software (v1.82.366).
# [3] = system: TFEB; assay: TFEB nuclear translocation in WT and Tsc2-/- MEFs; assay type: cell-based, mouse; settings: Tsc2-/- MEFs (constitutively active mTORC1) and control MEFs
# Protocol: (b) Quantification of TFEB subcellular localization (C, cytoplasmic; N, nuclear) after 24 h of trehalose treatment (Tre) or in untreated cells (UT). Scale bars in a, b is 40 μm. (c) Immunoblot analyses show expression levels of substrates downstream of mTORC1. Wild-type (WT) and TSC2 null MEF cells were treated with trehalose (Tre; 100 mM) for 24 h or left untreated. As controls, cells were treated with Torin 1 (300 nM) or rapamycin (300 nM) for 2 h before extracting the lysates. Phospho- and total S6K1 (P-S6K1 and T-S6K1), phospho- and total S6 (P-S6 and T-S6) and phospho- and total 4E-BP1 (P-4E-BP1 and T-4E-BP1) were detected as readouts of mTORC1 activity. […] (f) HeLa cells co-transfected with TFEB-3×FLAG and mTOR or (g) TFEB-3×FLAG and constitutively active mTOR (CA-mTOR, […]) constructs were treated with trehalose (100 mM for 24 h) or left untreated before immunofluorescent labelling of TFEB (red) and mTOR (green) with FLAG and mTOR antibodies, respectively. Scale bar, 10 μm (d-g). Data represent means±s.e.m.
# For immunofluorescence assay, cells were grown on coverslips in 24-well plates. After the treatment, cells were washed with PBS and fixed with methanol for 10 min. Cells were then blocked with blocking reagent (0.1% saponin, 10% bovine serum in PBS) for 1 h and incubated with appropriate primary antibody(s) (1:100) for 3 h at room temperature. […]
# [4] = cited from earlier work
# [5] = system: Cln3^Δex7-8 mice; assay: Astrocytosis, GFAP immunohistochemistry; assay type: in vivo, mouse; settings: for decrease of GFAP immunoreactivity: 12 months of age
# Protocol: Brains were subsequently removed and postfixed overnight. Before sectioning, the brains were cryoprotected in a solution containing 30% sucrose in Tris-buffered saline (TBS: 50 mM Tris, pH 7.6). Consecutive […] floating coronal sections were collected in 96-well plates. Series of sections were then stained with primary antisera against CD68 or GFAP, followed by either rabbit anti-rat (VectorLab) and swine anti-rabbit (DAKO) secondary antibodies, and immunoreactivity detected with Vectastain ABC (avidin-biotin) kit (Vector) and diaminobenzidine as a chromogen.
# Thirty non-overlapping images were captured, on three consecutive sections, through each region of interest. All RGB images were captured via a live video camera (JVC, 3CCD, KY-F55B), mounted onto a Zeiss Axioplan microscope using a ×40 objective and saved as JPEGs. All parameters including lamp intensity, video camera set-up and calibration were maintained constant throughout image capturing. Images were subsequently analysed using ImageJ analysis software (NIH), using an appropriate threshold that selected the foreground immunoreactivity above background. This threshold was then applied as a constant to all subsequent images analysed per batch of animals and reagent used to determine the specific area of immunoreactivity for each antigen in each region. This analysis was performed blind to genotype. Data were plotted graphically as the mean percentage area of immunoreactivity per field±s.e.m. for each region.
smiles,measurement,setting,value
"OC[C@H]1O[C@H](O[C@H]2O[C@H](CO)[C@@H](O)[C@H](O)[C@H]2O)[C@H](O)[C@@H](O)[C@@H]1O [trehalose, a-D-glucopyranosyl a-D-glucopyranoside]",autophagic flux,[1],increasing autophagic flux
same,number of fingerprint profiles,"[2]; Purkinje cells, P=0.047",significantly reduced the number of fingerprint profiles
same,number of fingerprint profiles,"[2]; cortical neurons, P=0.017",significantly reduced the number of fingerprint profiles
same,TFEB nuclear translocation,[3],induce TFEB nuclear translocation even with an active mTORC1
same,oral amount that may cause diarrhea and bloating,[4]; oral,40-50 grams per day
same,safety and toxicity,"[4]; orally and intravenously, doses substantially higher than the intended therapeutic dose",found to be safe
same,progressive neuroinflammation (GFAP and CD68 immunoreactivity),"[5]; S1BF and VPM/VPL, 7 and 12 months of age",mitigated
same,decrease of GFAP immunoreactivity,[5]; S1BF region,43%
same,decrease of GFAP immunoreactivity,[5]; VPM/VPL region,67%
